Source: the NIST ThermoML archive (doi:10.1016/j.jct.2018.04.011)

Key:
[1] = Crystal; for Normal melting temperature: DTA
[2] = Molar enthalpy of transition or fusion; conditions: Crystal; DSC
[3] = molar heat capacity at constant pressure; conditions: 101.33 kPa, DSC

COC(=O)c1cccc(O)c1 [methyl 3-hydroxybenzoate]
Conditions	mass density [kg/m3]
[1], 298.15 K, 101.33 kPa, Pycnometric method	1230

Conditions	Molar enthalpy of transition or fusion [kJ/mol]	Normal melting temperature [°C]
[1]	–	71.10
[2]	20.1	–

[3], Crystal
Conditions	molar heat capacity at constant pressure [J/K/mol]
293.15 K	200.2
294.15 K	201.3
295.15 K	202.6
296.15 K	203.3
297.15 K	204.1
298.15 K	205
299.15 K	205.6
300.15 K	206.2
301.15 K	206.7
302.15 K	207.5
303.15 K	208.2
304.15 K	208.7
305.15 K	209.2
306.15 K	209.8
307.15 K	210.4
308.15 K	211
309.15 K	211.5
310.15 K	212
311.15 K	212.6
312.15 K	213.1

COC(=O)c1ccc(O)cc1 [methyl 4-hydroxybenzoate]
Conditions	Molar enthalpy of transition or fusion [kJ/mol]	Normal melting temperature [°C]
[1]	–	126
[2]	25.8	–

[3], Crystal
Conditions	molar heat capacity at constant pressure [J/K/mol]
293.15 K	209.8
294.15 K	211
295.15 K	212.2
296.15 K	212.8
297.15 K	213.6
298.15 K	214.4
299.15 K	215.2
300.15 K	215.7
301.15 K	216.2
302.15 K	217
303.15 K	217.8
304.15 K	218.4
305.15 K	218.9
306.15 K	219.3
307.15 K	220.1
308.15 K	220.6
309.15 K	221.2
310.15 K	221.7
311.15 K	222.4
312.15 K	222.8

COC(=O)c1ccccc1O [methyl 2-hydroxybenzoate]
Conditions	Molar enthalpy of transition or fusion [kJ/mol]	Normal melting temperature [°C]
[1]	–	-1.66
[2]	16.3	–

[3], Liquid
Conditions	molar heat capacity at constant pressure [J/K/mol]
293.15 K	240.4
294.15 K	241.6
295.15 K	242.5
296.15 K	243.3
297.15 K	243.9
298.15 K	244.3
299.15 K	244.8
300.15 K	245.2
301.15 K	245.6
302.15 K	246.1
303.15 K	246.6
304.15 K	246.9
305.15 K	247.1
306.15 K	247.4
307.15 K	247.8
308.15 K	248
309.15 K	248.3
310.15 K	248.6
311.15 K	249.1
312.15 K	249.4
